{"source": "patent US9238632B2", "about": "“3-cyanoanilinoalkylarylpiperazine derivative and use thereof in preparing drugs” (NHWA Pharma. Corporation, priority 2012, dated 2016)", "key": {"[1]": {"target": "T1, 5-HT1A receptor (Rattus norvegicus, UniProt P19327)", "T1 construct": "The supernatant is discarded and the precipitate (membrane receptor) is stocked; from tissue; host or cells: SD rat cerebral cortex membranes", "T1 sequence (P19327 1-422)": "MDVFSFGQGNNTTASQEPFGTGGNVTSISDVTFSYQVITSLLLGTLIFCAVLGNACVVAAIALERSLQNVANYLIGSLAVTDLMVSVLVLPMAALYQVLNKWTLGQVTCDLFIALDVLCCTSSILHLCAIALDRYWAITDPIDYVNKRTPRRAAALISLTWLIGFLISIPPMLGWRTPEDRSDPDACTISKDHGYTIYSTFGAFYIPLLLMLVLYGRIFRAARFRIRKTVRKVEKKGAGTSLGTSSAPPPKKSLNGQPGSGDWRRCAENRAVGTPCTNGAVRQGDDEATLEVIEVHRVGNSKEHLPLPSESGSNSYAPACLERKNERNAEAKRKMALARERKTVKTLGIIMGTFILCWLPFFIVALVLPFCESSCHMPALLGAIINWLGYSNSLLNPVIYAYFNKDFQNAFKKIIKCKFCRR", "experiment": "In vitro competitive binding test to 5-HT1A receptor ([3H]-8-OH-DPAT, rat cerebral cortex membranes)", "settings": "10 μmol/L compound; hydrochloride salts; rat cerebral cortex membrane; unit (I %); read-out: 5-HT1A affinity [3H]-8-OH-DPAT (inhibition rate of radioligand binding)", "protocol": "(§1) Animals: clean grade SD rats, female and male, 250-300 g, purchased from Nanjing QingLongshan animal breeding center.\n(§2) Radioligand: [^3H]-8-OH-DPAT, [^3H]-Ketanserin, purchased from PerkinElmer company; 5-HT and Methysergide, purchased from Sigma company.\nPreparation of 5-HT1A buffer solution: Tris-HCl buffer solution (0.05M, 1000 ml) is added with certain amount of ascorbic acid, pargyline and CaCl2, to give final concentrations of 0.1%(ascorbic acid), 10 um (pargyline) and 4 mM (CaCl2) separately.\n(§3) Preparation of radioligand: 50 μl mother liquor is diluted to 5 ml with anhydrous ethanol, and stocked for use.\n(§4) Preparation of non-labeling ligand: appropriate amounts of 5-HT and Methysergide are dissolved in ultrapure water to give solutions with final concentrations of 2*10^−5M respectively.\n(§5) Preparation of solutions of various test drugs: appropriate amount of each drug is first diluted to 1 ml with ultrapure water as stock solution. When needed, 10 μl of the stock solution is diluted to 1 ml to reach a level of 10^−5M.\n(§6) Rats are decapitated to get the brains. The target tissues (left and right cerebral cortex) are separated on ice, added with 10-fold volume (V/W) of ice-cold buffer, and homogenized with tissue Homogenizer for several seconds 3 times to form tissue homogenate. The tissue homogenate is centrifuged with low temperature superb centrifuge (12000 r/min) 3 times, with each for 20 minutes. The supernatant is discarded and the precipitate (membrane receptor) is stocked in −80° C. ultralow temperature freezer.\n(§7) The membrane receptor is added with certain volume of ice-cold buffer and homogenized to make membrane receptor solutions at certain concentrations.\n(§8) Various reaction solutions are added in the following sequences and ratios:\n(§9) Total binding tube: 100 μl membrane receptor+100 μl buffer+10 μl radioligand\n(§10) Non-specific tube: 100 μl membrane receptor+100 μl non-labeling ligand+10 μl radioligand\n(§11) Test compound tube: 100 μl membrane receptor+100 μl drug solution+10 μl radioligand\n(§12) Above tubes are put in 37° C. water bath immediately after finishing adding radioligand into each of them and then incubated for 25 min. After 25 min, the tubes are put in ice water to quench the reaction. Each tube is poured into suction filtration device to filter, and the filter membrane is washed with 5-10 ml ice-cold buffer twice. The filter membrane is dried in 85° C. oven, and then put into test tubes, and added with certain amount of scintillation liquid to soak overnight. Radioactivity is determined using liquid scintillation counter.\n(§13) Each compound is tested in duplicate, and the tests are carried out independently twice."}, "[2]": {"target": "T2, 5-HT2A receptor (Rattus norvegicus, UniProt P14842)", "T2 construct": "The supernatant is discarded and the precipitate (membrane receptor) is stocked; from tissue; host or cells: SD rat cerebral cortex membranes", "T2 sequence (P14842 whole entry)": "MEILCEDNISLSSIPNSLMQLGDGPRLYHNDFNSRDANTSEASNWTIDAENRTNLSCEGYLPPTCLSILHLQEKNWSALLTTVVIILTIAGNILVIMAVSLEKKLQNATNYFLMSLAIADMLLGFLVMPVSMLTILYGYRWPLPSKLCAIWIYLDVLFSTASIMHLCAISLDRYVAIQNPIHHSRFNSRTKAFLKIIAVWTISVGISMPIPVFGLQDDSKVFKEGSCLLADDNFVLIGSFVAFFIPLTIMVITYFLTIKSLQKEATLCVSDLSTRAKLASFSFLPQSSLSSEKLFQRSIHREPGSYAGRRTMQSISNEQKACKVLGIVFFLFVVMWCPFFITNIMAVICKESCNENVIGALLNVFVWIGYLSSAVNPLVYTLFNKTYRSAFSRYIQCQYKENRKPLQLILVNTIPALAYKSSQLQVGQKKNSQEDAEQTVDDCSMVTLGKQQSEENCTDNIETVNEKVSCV", "experiment": "In vitro competitive binding test to 5-HT2A receptor ([3H]-Ketanserin, rat cerebral cortex membranes)", "settings": "10 μmol/L compound; hydrochloride salts; rat cerebral cortex membrane; unit (I %); read-out: 5-HT2A affinity [3H]-Ketanserin (inhibition rate of radioligand binding)", "protocol": "as §1, §2\nPreparation of 5-HT2A buffer solution: Tris (6.05 g) is dissolved in ultrapure water (1000 ml). PH is adjusted to 7.4 with HCl. Tris-HCl buffer solution (0.05M) is used.\nas §3, §4, §5, §6, §7, §8, §9, §10, §11, §12, §13"}, "[3]": {"system": "rat formalin induced pain model", "experiment": "Rat formalin induced pain model (leg-raising times)", "assay_type": "in vivo, SD rats", "settings": "formalin 1 h later, Mean ± SD, n=10", "description": "Rat formalin induced pain model is used to test in vivo analgesic effect of hydrochloride of compound III-10.\nRat formalin induced pain model is established by Dubuisson and Dennis in 1977. It can simulate some characteristics of human pains after damages, and its persistent tension pain is similar to common clinical chronic pains. Its experimental results have excellent repeatability, and it is considered to be universally accepted pain model which is more reliable than short-term mechanical or thermal stimulation models. It has been generally used in investigation and determination of pain mechanism, pain physiology and pharmacology, screening of the analgesic effects of drugs and evaluation of analgesic drugs.\nTest compounds are prepared to relevant doses with 0.5% CMC-Na before use.\nFormaldehyde solution: batch number HN20041109, HuaDong reagent industrial company. In experiment, it is diluted to 5% formaldehyde solution with 0.9% sodium chloride injection.\n90 SD rats of weight (240-350 g), half female and half male, are fed for I week to adapt the environment, with 5 in each cage during feeding, the rats are fed under standard condition during experiments with free access to water and food.\n90 SD rats of weight 240-350 g are randomly divided into 9 groups which are negative control group, model group, gabapentin group, high, median and low dosage group of each compound respectively, with 10 rats in each group, half female and half male. Relevant test compounds are given by intragastric administration, and 5% formalin (50 ul) is subcutaneously injected at the left rear foot in 1 h to model, formation of pichu indicates a successful modeling. 0.5% (weight percentage) CMC-Na is given by intragastric administration in negative control group, and normal saline (50 ul) is subcutaneously injected at the bottom of right rear foot in 1 h. After modeling, the leg-raising times in 1-2 minutes and 5-6 minutes are observed. The time period 10-60 minutes are divided into 5 minutes intervals, and the leg-raising times of the first minute of each interval (10-11, 15-16, 20-21, 25-26, 30-31, 35-36, 40-41, 45-46, 50-51, 55-56, 60-61) are observed.\nMeasuring index is expressed as mean±standard deviation (Mean±SD), comparison is analyzed with One-way ANOVA."}, "[4]": {"experiment": "Acute toxicity study, single drench to mice (LD50, Bliss method)", "settings": "mouse, in vivo, oral, hydrochloride", "description": "Bliss method is used for statistics."}, "[5]": {"system": "Salmonella typhimurium histidine auxotrophic mutants TA97, TA98, TA100 and TA102", "experiment": "Bacterial reverse mutation test (Ames test)", "settings": "−S9 and +S9, all dosages", "protocol": "Strains: Salmonella typhimurium histidine auxotrophic mutants TA97, TA98, TA100 and TA102.\nResults: the experiments include two parts of −S9 and +S9. In the test system without S9, TA98 5000 μg/dish has antibacterial activity, and in the test system with S9, TA97 5000 μg/dish has antibacterial activity. Other dosages have no antibacterial activity to any of the strains, and the growth background is excellent. […] Ames test is negative."}, "[6]": {"target": "hSERT (Homo sapiens, UniProt P31645)", "sequence (P31645 whole entry)": "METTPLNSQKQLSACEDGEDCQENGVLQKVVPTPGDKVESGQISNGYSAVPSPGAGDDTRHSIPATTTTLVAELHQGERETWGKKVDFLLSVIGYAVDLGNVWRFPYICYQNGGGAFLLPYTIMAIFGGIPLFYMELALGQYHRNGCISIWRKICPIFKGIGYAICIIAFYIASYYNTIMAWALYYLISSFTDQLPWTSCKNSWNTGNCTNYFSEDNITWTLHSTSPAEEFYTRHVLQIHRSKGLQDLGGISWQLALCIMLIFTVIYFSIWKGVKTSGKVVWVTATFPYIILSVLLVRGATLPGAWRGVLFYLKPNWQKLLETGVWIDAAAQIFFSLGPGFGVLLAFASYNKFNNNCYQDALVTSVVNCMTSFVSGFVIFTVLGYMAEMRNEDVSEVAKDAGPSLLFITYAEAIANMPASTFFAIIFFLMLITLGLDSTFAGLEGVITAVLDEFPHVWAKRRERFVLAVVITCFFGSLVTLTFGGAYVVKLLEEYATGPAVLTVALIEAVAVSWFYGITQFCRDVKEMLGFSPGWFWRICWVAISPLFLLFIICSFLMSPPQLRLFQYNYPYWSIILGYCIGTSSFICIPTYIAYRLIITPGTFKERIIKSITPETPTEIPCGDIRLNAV", "experiment": "In vitro inhibition of serotonin reuptake ([3H]-5-HT) in cells stably expressing hSERT", "procedure": "Positive control compound: fluoxetine.\nSample treatment: about 1 mg of compound is weighted and added with relative amount of DMSO to prepare 10^−2M stock solution. Before use, the stock solution is diluted with HBSS buffer to relative concentrations. Each sample is dissolved in DMSO completely. The dilution is clear and without obvious cloudy and formation of precipitate after adding with buffer.\n(1) Cells which can stably express hSERT are seeded into 24-well plates respectively.\n(2) Experiments are started when the cell confluence reaches 80-90%.\n(3) Liquids in the plates are discarded, the plates are washed with PBS twice at room temperature.\n(5) Plates are incubated at 37° C. for 10 min after slight oscillation.\n(6) Then 20 μl radioisotope is added (cpm: about 20000).\n(7) Plates are incubated at 37° C. for 5 min after slight oscillation.\n(8) Liquids in the plates are discarded, the plates are washed with ice-cold PBS twice, all the liquids in the plates are removed away.\n(9) NaOH (2M, 100 μl) is added into each well to lyse the cells. All the lysates are combined and put on GF/C glass fiber filter paper.\n(10) The filter papers are dried and put in 0.5 ml centrifuge tube, 500 μl lipid soluble scintillation liquid are added. Radioactivity is determined by MicroBeta liquid scintillation counter. Each concentration is tested intriplicate, and tests are carried out independently twice.\nTest concentration is 10 μmol/L. The positive drug provided is set as control (10 μmol/L) in each experiment. The experimental processes are the same as the above process."}}, "data": [{"smiles": "CN(CCCN1CCN(c2cccc(Cl)c2)CC1)c1cccc(C#N)c1", "note": "[III-10, 3-((3-(4-(3-chlorophenyl)piperazin-1-yl)propyl)methylamino)benzonitrile]", "values": [{"measurement": "inhibition at 10 µM", "setting": "[1]", "result": 109, "unit": "%"}, {"measurement": "inhibition at 10 µM", "setting": "[2]", "result": 145, "unit": "%"}, {"measurement": "phase I times (leg-raising times)", "setting": "[3]; 40 mg/kg intragastric", "result": "21.23 ± 11.24", "unit": "time"}, {"measurement": "phase I times (leg-raising times)", "setting": "[3]; 160 mg/kg intragastric", "result": "21.90 ± 15.48", "unit": "time"}, {"measurement": "LD50", "setting": "[4]", "result": 1500, "unit": "mg/kg"}, {"measurement": "Ames test (colony reverse mutations)", "setting": "[5]", "result": "negative"}, {"measurement": "IC50", "setting": "[6]", "result": "138 ± 35", "unit": "nM"}, {"measurement": "inhibition effect to 5-HT reuptake compared with fluoxetine", "setting": "[6]", "result": "more potent than that of fluoxetine"}, {"measurement": "inhibition at 10 µM", "setting": "[6]; read-out: Inhibition rates of SERT reuptake [3H]-5-HT", "result": 94.3, "unit": "%"}]}]}
